From US20260097111A1, “ETHER LIPIDS FOR HYPERACTIVATION OF MAMMALIAN DENDRITIC CELLS” (priority 2022, published 2026) come the findings set out here.

“Also recorded” adds a separate entry of the source.

The assay relates to human monocyte-derived dendritic cells (moDCs). Briefly: IL-1β secretion by human moDCs treated with lipid and R848. The class given is cell-based. Conditions: for IL-1β secretion, dependence on the NLRP3 inflammasome / IL-1β secretion: human moDCs; for IL-1β secretion, dependence on the NLRP3 inflammasome: R848 + lipid with or without MCC950, one day, FIG. 3B.

For `CC(C)(O)c1coc(S(=O)(=O)NC(=O)Nc2c3c(cc4c2CCC4)CCC3)c1` [MCC950, reference compound], the “IL-1β secretion, dependence on the NLRP3 inflammasome” value is listed as “diminished the IL-1β output”.

Consider `CCCCCCCCCCCCCCCCCCCCCCOC[C@@H](O)COP(=O)(O)O` [Compound 2, 1-docosyl-sn-glycerol-3-phosphate], for which the “IL-1β secretion, dependence on the NLRP3 inflammasome” value is “depend on the NLRP3 inflammasome for IL-1β secretion”. Besides, the “hyperactivation of human dendritic cells” value (41.25 μM lipid with R848 (Compound 1 also 20.6 μM)) is recorded as “hyperactivating lipids; also recorded: hyperactivated dendritic cells”. Further, where the note is “41.25 μM lipid with R848, FIG. 17”, the IL-1β secretion result is reported as “significant increase in IL-1β”. Also, where the note is “41.3 uM lipid with R848, FIG. 11”, the IL-1β secretion entry is listed as “robustly induced IL-113 secretion”. The IL-1β secretion entry (24 hours, lipid (equimolar, in 0.5% KP407) with R848, FIG. 1B, listed as DGP) was “IL-1β was secreted to a greater extent than 22:0 lyso PC; also recorded: more potent hyperactivator compared to DGPC (Compound 1) and 22:0 lyso PC”. The IL-1β secretion result (24 hours, lipid in 4% KP407 with R848, FIG. 2B) is “produced significantly more IL-1β”.
